Earlier results as cited in patent US6777448B2, “Veterinary compositions for the treatment of parasitic diseases” (New Pharma Research Sweden AB, priority 2000, dated 2004).
Like-named read-outs stand apart in the source and are kept apart here.

How the values were obtained:
[1] = given orally
[2] = delivered via injection as such
[3] = bloodstream of animals

O=C(Nc1ccc(Oc2ccc(Cl)cc2)c(Cl)c1)c1cc(I)cc(I)c1O [rafoxanide, 3′-chloro-4′-(4-chlorophenoxy)-3,5-di-iodosalicylanilide]
solubility (in a 1% surface-active agent composition): 0.14%
solubility in water (water at 25° C.): approximately 0.005 % weight/volume
absorption ([1]; non-gastric species): 10%
absorption ([1]; ruminants): up to 50%
irritation on injection [2]: irritating
binding to protein in the blood [3]: bind strongly to protein in the blood
persistence in the bloodstream [3]: persist in the bloodstream of animals
